# Reference: US11932629B2, “KDM1A inhibitors for the treatment of disease” (Imago Biosciences, Inc., priority 2018, dated 2024)
# Biological target: LSD1 (Homo sapiens, UniProt O60341)
# Assay: LSD1 fluorescence coupling enzyme assay (HRP/Amplex Red), 10-dose IC50 mode
# Format: biochemical
# Conditions: 10-dose IC50 mode, 3-fold serial dilution in duplicate starting at 100 μM; 10 μM histone H3(1-21)K4me2 peptide substrate; read-out: RB LSD1 ave
# Description: Compounds were tested in a 10-dose IC50 mode fluorescence coupling enzyme assay with 3-fold serial dilution in duplicate starting at 100 μM. The production of FAD-dependent H2O2 as a result of demethylase activity of LSD1 on 10 μM histone H3(1-21)K4me2 peptide substrate was measured by coupling with HRP and Amplex Red to yield resorufin (fluorescence measured at Ex/Em=535/590 nm on EnVision, Perkin Elmer).
row,Compound,IC50
1,"CN1CCN(c2nc(CCCN[C@@H]3C[C@H]3c3ccc(F)cc3)c[nH]c2=O)CC1 [Example 2, 5-[3-([(1R,2S)-2-(4-fluorophenyl)cyclopropyl]amino)propyl] 3-[4-methylpiperazin-1-yl]-pyrazin-2(1H)-one]",28 nM
2,"CS(=O)(=O)N1CCN(c2nc(CCCN[C@@H]3C[C@H]3c3ccc(F)cc3)c[nH]c2=O)CC1 [Example 3, 5-[3-([(1R,2S)-2-(4-fluorophenyl)cyclopropyl]amino)propyl]-3-[4-(methylsulfonyl)piperazin-1-yl]pyrazin-2(1H)-one]",7 nM
3,"O=c1[nH]cc(CCCN[C@@H]2C[C@H]2c2ccc(F)cc2)nc1N1CCOCC1 [Example 4, 5-[3-([(1R,2S)-2-(4-fluorophenyl)cyclopropyl]amino)propyl]-3-morpholinopyrazin-2(1H)-one]",7 nM
4,"O=c1[nH]cc(CCCN[C@@H]2C[C@H]2c2ccc(F)cc2)nc1N1CCC1 [Example 5, 3-[Azetidin-1-yl]-5-[3-([(1R,2S)-2-(4-fluorophenyl)cyclopropyl]amino)propyl]-pyrazin-2(1H)-one]",12 nM
5,"O=c1c(N2CCS(=O)(=O)CC2)nc(CCCN[C@@H]2C[C@H]2c2ccc(F)cc2)cn1C1CC1 [Example 8, 1-Cyclopropyl-3-[1,1-dioxidothiomorpholino]-5-[3-([(1R,2S)-2-(4-fluorophenyl)cyclopropyl]amino)propyl]pyrazin-2(1H)-one]",48 nM
6,"O=c1[nH]cc(CCCN[C@@H]2C[C@H]2c2ccccc2)nc1N1CCS(=O)(=O)CC1 [Example 9, 3-(1,1-Dioxidothiomorpholino)-5-(3-(((1R,2S)-2-phenylcyclopropyl)amino)propyl)pyrazin-2(1H)-one]",6 nM
7,"O=C(O)C1CCN(c2nc(CCCN[C@@H]3C[C@H]3c3ccc(F)cc3)c[nH]c2=O)CC1 [Example 10, 1-[6-(3-[([1R,2S]-2-[4-fluorophenyl]cyclopropyl)amino]propyl)-3-oxo-3,4-dihydropyrazin-2-yl]piperidine-4-carboxylic acid]",300 nM
8,"CN(C)S(=O)(=O)c1ccc(-n2cc(CCCN[C@@H]3C[C@H]3c3ccc(F)cc3)nc(N3CCNCC3)c2=O)cc1 [Example 14, 4-[5-(3-[([1R,2S]-2-[4-fluorophenyl]cyclopropyl)amino]propyl)-2-oxo-3-(piperazin-1-yl)pyrazin-1(2H)-yl]-N,N-dimethylbenzenesulfonamide]",10 nM
9,"O=c1c(N2CCNCC2)nc(CCCN[C@@H]2C[C@H]2c2ccc(F)cc2)cn1-c1ccc(F)cc1 [Example 26, 1-[4-Fluorophenyl]-5-[3-([(1R,2S)-2-(4-fluorophenyl)cyclopropyl]amino)propyl]-3-(piperazin-1-yl)pyrazin-2(1H)-one]",4 nM
10,"O=c1c(N2CCNCC2)nc(CCCN[C@@H]2C[C@H]2c2ccc(F)cc2)cn1-c1ccc(-n2ccnn2)cc1 [Example 27, 1-[4-(1H-1,2,3-triazol-1-yl)phenyl]-5-[3-([(1R,2S)-2-(4-fluorophenyl)-cyclopropyl]amino)propyl]-3-[piperazin-1-yl]pyrazin-2(1H)-one]",17 nM
11,"O=c1c(N2CCNCC2)nc(CCCN[C@@H]2C[C@H]2c2ccc(F)cc2)cn1-c1ccc(-c2ncccn2)cc1 [Example 28, 5-[3-([(1R,2S)-2-(4-fluorophenyl)cyclopropyl]amino)propyl]-3-[piperazin-1-yl]-1-[4-(pyrimidin-2-yl)phenyl]pyrazin-2(1H)-one]",6 nM
12,"O=c1c(N2CCNCC2)nc(CCCN[C@@H]2C[C@H]2c2ccc(F)cc2)cn1-c1ccc(-c2cccnn2)cc1 [Example 29, 5-[3-([(1R,2S)-2-(4-fluorophenyl)cyclopropyl]amino)propyl]-3-[piperazin-1-yl]-1-[4-(pyridazin-3-yl)phenyl]pyrazin-2(1H)-one]",2 nM
13,"CN(C)S(=O)(=O)c1ccc(-n2cc(CCCN[C@@H]3C[C@H]3c3ccc(F)cc3)nc(N3CCN(S(C)(=O)=O)CC3)c2=O)cc1 [Example 30, 4-[5-(3-[[(1R,2S)-2-(4-Fluorophenyl)cyclopropyl]amino]propyl)-3-(4-methanesulfonylpiperazin-1-yl)-2(1H)-oxopyrazin-1-yl]-N,N-dimethylbenzene-1-sulfonamide]",2 nM
14,"O=c1[nH]cc(CCCN[C@@H]2C[C@H]2c2ccc(F)cc2)nc1N1CCNCC1 [Example 31, 5-[3-([(1R,2S)-2-(4-fluorophenyl)cyclopropyl]amino)propyl]-3-[piperazin-1-yl]pyrazin-2(1H)-one]",4 nM
15,"O=c1[nH]cc(CCCN[C@@H]2C[C@H]2c2ccc(F)cc2)nc1N1CCS(=O)(=O)CC1 [Example 32, 3-[1,1-Dioxidothiomorpholino]-5-[3-([(1R,2S)-2-(4-fluorophenyl)cyclopropyl]amino)propyl]pyrazin-2(1H)-one]",9 nM
16,"O=c1c(-c2cn[nH]c2)nc(CCCN[C@@H]2C[C@H]2c2ccc(F)cc2)cn1-c1ccc(F)cc1 [Example 36, 1-[4-fluorophenyl]-5-[3-([(1R,2S)-2-(4-fluorophenyl)cyclopropyl]amino)propyl]-3-[1H-pyrazol-4-yl]pyrazin-2(1H)-one]",13 nM
17,"CN1CCN(c2nc(CCCN[C@@H]3C[C@H]3c3ccc(F)cc3)c[nH]c2=O)CC1=O [Example 41, 5-[3-([(1R,2S)-2-(4-fluorophenyl)cyclopropyl]amino)propyl]-3-[4-methyl-3-oxopiperazin-1-yl]pyrazin-2(1H)-one]",24 nM
18,"N#Cc1ccc(-n2cc(CCCN[C@@H]3C[C@H]3c3ccc(F)cc3)nc(N3CC4(COC4)C3)c2=O)cc1 [Example 44, 4-[5-(3-[([1R,2S]-2-[4-fluorophenyl]cyclopropyl)amino]propyl)-2-oxo-3-(2-oxa-6-azaspiro[3.3]heptan-6-yl)pyrazin-1(2H)-yl]benzonitrile]",6 nM
19,"O=C1CN(c2nc(CCCN[C@@H]3C[C@H]3c3ccc(F)cc3)cn(Cc3ccccc3)c2=O)CCN1 [Example 46, 1-benzyl-5-[3-([(1R,2S)-2-(4-fluorophenyl)cyclopropyl]amino)propyl]-3-[3-oxopiperazin-1-yl]pyrazin-2(1H)-one]",7 nM
20,"O=C1CN(c2nc(CCCN[C@@H]3C[C@H]3c3ccc(F)cc3)c[nH]c2=O)CCN1 [Example 48, 5-[3-([(1R,2S)-2-(4-fluorophenyl)cyclopropyl]amino)propyl]-3-[3-oxopiperazin-1-yl]pyrazin-2(1H)-one]",15 nM
